Laboratory results published in patent US20190077766A1, “Compositions For APP-Selective BACE Inhibition And Uses Therefor” (NantNeuro, LLC, priority 2015, published 2019).
“And” between values parts separate entries of the source, which are not always exact repeats. Identical values can stand only once. Like-named read-outs stand apart in the source and are kept apart here.

How the values were obtained:
[1] = molecular target: T1, BACE1 (Homo sapiens, UniProt P56817); assay: in vitro BACE inhibition assay (Primary BACE1 IC50); format: biochemical
T1 construct: purchased R&D 931-AS-050
From the text: (§1) ABBI Assay: APP Binding BACE Inhibitor (ABBI) activity of any of the compounds described herein can readily be verified using, for example, assays described herein. Basically, in certain embodiments a pair the assays are utilized to identify ABBI compounds that inhibit BACE cleavage of the MBP-C125 APP substrate, resulting in the inhibition of the production of C99 and the β-site peptide substrate (P5-P5′) and also interacts with APP, for example, as measured by surface plasmon resonance (SPR) analysis. In one illustrative embodiment, an MBP-C125 APP695 wt fusion protein can be used as one of the substrates and the second substrate can be the commercially available P5-P5′ fluorescence substrate.

[2] = molecular target: T2, APP (Homo sapiens, UniProt P05067); assay: APP binding (APP Kd), surface plasmon resonance
T2 construct: made in house
From the text: as §1, with “substrate. […]” for “substrate.”

[3] = system: CHO-7W cells that were stably transfected with human APP (wildtype); assay: Secondary cell-based APP processing assay (sAPPalpha, sAPPbeta, Abeta 1-42)
From the text: Cellular Assays: Numerous cell-based assays can be used to evaluate the activity of agent(s) of interest on relative alpha-secretase activity to beta-secretase activity and/or processing of APP to release amyloidogenic versus non-amyloidogenic oligomers.
Human cell lines that normally process Aβ from APP provide a useful means to assay inhibitory activities of the agent(s). Production and release of Aβ and/or other cleavage products into the culture medium can be measured, for example by immunoassay, such as Western blot or enzyme-linked immunoassay (EIA) such as by ELISA.
Relative activity of the alpha-secretase to the beta-secretase can be measured by analysis of one or more cleavage products of the APP substrate. For example, inhibition of beta-secretase activity against the substrate APP would be expected to decrease release of specific beta-secretase induced APP cleavage products such as Aβ (e.g., Aβ40 or Aβ42), sAPPβ and APPneo. Promotion or enhancement of alpha-secretase activity against the substrate APP would be expected to increase release of specific alpha-secretase induced APP cleavage products such as sAPPα and p3 peptide.
In such assays, for example, the cells expressing APP, alpha-secretase and/or beta-secretase are incubated in a culture medium under conditions suitable for alpha-secretase and/or beta-secretase enzymatic activity at its cleavage site on the APP substrate. On exposure of the cells to the agent(s), the amount of Aβ released into the medium and/or the amount of CTF99 fragments of APP in the cell lysates is reduced as compared with the control. The cleavage products of APP can be analyzed, for example, by immune reactions with specific antibodies, as discussed above.

[4] = solubility (Sol); format: physicochemical; details: Table 3; in words
[5] = pharmacokinetics, brain level (Cmax brain); format: in vivo
From the text: As is readily apparent, not all compounds were equally able to cross the blood brain barrier, but most compounds did reach pharmacologically meaningful levels given their low IC50 values. FIG. 5A provides a further exemplary compound (FAH65) and FIG. 5B depicts dose response data for Aβ1-42 production in a cell based system. Further shown are effects observed with regard to Aβ1-42 production, sAPPβ and sAPPα formation. […] Here, data are presented for oral and subcutaneous administration (SQ) at dosages of 10- and 30 mg/kg. […] Once more, it should be noted that these exemplary compounds are preferential towards APP in BACE inhibition as can be taken from the data for Aβ1-42, sAPPβ, and sAPPα formation.

[6] = Table 4, several values in a cell = several determinations, read-out: BACE1 IC50
[7] = Tables 1 and 2, read-out: Primary BACE1 IC50
[8] = Table 2, one cell for the whole line

T1 sequence (P56817 46-457 limits assumed): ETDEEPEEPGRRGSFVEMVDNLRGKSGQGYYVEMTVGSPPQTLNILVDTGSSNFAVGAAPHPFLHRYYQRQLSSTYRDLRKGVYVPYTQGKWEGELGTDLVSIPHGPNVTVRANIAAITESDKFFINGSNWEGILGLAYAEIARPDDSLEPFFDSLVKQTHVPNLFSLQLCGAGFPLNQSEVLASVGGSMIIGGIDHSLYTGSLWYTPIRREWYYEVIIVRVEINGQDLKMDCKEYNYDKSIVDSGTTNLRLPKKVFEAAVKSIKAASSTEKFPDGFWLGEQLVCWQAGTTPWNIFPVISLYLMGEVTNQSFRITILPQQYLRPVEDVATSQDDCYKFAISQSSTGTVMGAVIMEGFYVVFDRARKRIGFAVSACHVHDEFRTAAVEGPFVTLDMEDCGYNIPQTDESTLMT
T2 sequence (P05067 230-624 isoform P05067-4): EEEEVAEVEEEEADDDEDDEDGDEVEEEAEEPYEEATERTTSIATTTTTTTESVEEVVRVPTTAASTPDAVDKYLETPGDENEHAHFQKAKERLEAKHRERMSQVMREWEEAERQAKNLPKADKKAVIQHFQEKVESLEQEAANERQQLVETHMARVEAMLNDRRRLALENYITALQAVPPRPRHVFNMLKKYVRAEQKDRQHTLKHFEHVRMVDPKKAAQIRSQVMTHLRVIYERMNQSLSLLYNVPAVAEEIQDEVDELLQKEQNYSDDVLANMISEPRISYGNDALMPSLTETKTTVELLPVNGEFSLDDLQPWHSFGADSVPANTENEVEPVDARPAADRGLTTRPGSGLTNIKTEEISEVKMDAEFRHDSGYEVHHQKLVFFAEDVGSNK

Row | Structure (SMILES) | IC50 [1, 6] | IC50 [1, 7] | further results
1 | CN1C(=O)C(c2cc(F)cc(F)c2)(c2cccc(OC(F)F)c2)N=C1N (stereo not drawn) [FAH-04] | 2230 nM and 3500 nM |  | 
2 | Cc1cc(C2(c3cc(F)cc(Cl)c3)N=C(N)N(C)C2=O)ccc1OC(F)F (stereo not drawn) [FAH-25] | 570 nM | 570 nM | 
3 | Cc1cc(C2(c3cc(F)cc(F)c3)N=C(N)N(C)C2=O)ccc1OC(F)F (stereo not drawn) [FAH-03] |  | 530 nM | Kd [2]: ~300 nM
4 | Cc1cc(C)cc(C2(c3cc(F)cc(F)c3)N=C(N)N(C)C2=O)c1 (stereo not drawn) [FAH-05] | 6460 nM |  | 
5 | COCc1cccc(C2(c3ccc(OC(F)F)c(C)c3)N=C(N)N(C)C2=O)c1 (stereo not drawn) [FAH-44] | 300 nM and 50 nM | 300 nM | sAPPalpha ([3]; Secondary (1st test, n = 3), ↑ = increase): ↑>10%; Sol [4]: med; IC50 ([1]; Table 3, read-out: IC50): ~25 nM; Cmax brain ([5]; 10 mg/kg 5Q): ~0.2 µM
6 | Cc1cc(C2(c3cc(F)cc(F)c3)N=C(N)N(C)C2=O)ccc1F (stereo not drawn) [FAH-10] | 1600 nM |  | 
7 | Cc1cc(C2(c3cc(F)c(F)c(F)c3)N=C(N)N(C)C2=O)ccc1OC(F)F (stereo not drawn) [FAH-19] | 960 nM |  | 
8 | Cc1cc(C2(c3cccc(F)c3)N=C(N)N(C)C2=O)ccc1OC(F)F (stereo not drawn) [FAH-17] |  | 150 nM | Sol [4]: med; IC50 ([1]; Table 3, read-out: IC50): ~100 nM; Cmax brain ([5]; 10 mg/kg 5Q): ~0.3 µM
9 | CN1C(=O)C(c2ccc(OC(F)F)cc2)(c2cc(F)cc(F)c2)N=C1N (stereo not drawn) [FAH-02] | 2130 nM and 9200 nM |  | 
10 | COc1ccc(C2(c3cc(F)cc(F)c3)N=C(N)N(C)C2=O)cc1C (stereo not drawn) [FAH-06] | 600 nM and 4100 nM |  | 
11 | COc1ccc(C2(c3cc(F)cc(F)c3)N=C(N)N(C)C2=O)cn1 (stereo not drawn) [FAH-11] | 1800 nM |  | 
12 | Cc1cc(C2(c3cncnc3)N=C(N)N(C)C2=O)ccc1OC(F)F (stereo not drawn) [FAH-33] | 10000 nM | 10000 nM | 
13 | CC#Cc1cc(C2(c3ccc(OC(F)F)c(C)c3)N=C(N)N(C)C2=O)ccn1 (stereo not drawn) [FAH-57] | 240 nM |  | 
14 | CN1C(=O)C(c2ccc(OC(F)F)cc2)(c2cccc(-c3cncnc3)c2)N=C1N (stereo not drawn) [FAH-74] | 10 nM |  | IC50 ([1]; in vitro BACE inhibition assay, FIG. 8, read-out: IC50): 9 nM
15 | Cc1cc(C2(c3cocn3)N=C(N)N(C)C2=O)ccc1OC(F)F (stereo not drawn) [FAH-38] | 15300 nM | > 10000 nM | Secondary (sAPPalpha, sAPPbeta, sAPP(α/β), Abeta 1-42, sAPPa/Aβ) [3, 8]: unchanged
16 | Cc1cc(C2(C3CCNCC3)N=C(N)N(C)C2=O)ccc1OC(F)F (stereo not drawn) [FAH-79] | 17600 nM |  | 
17 | Cc1cc(C2(c3ccnc(F)c3)N=C(N)N(C)C2=O)ccc1OC(F)F (stereo not drawn) [FAH-46] | 1600 nM | 1200 nM | Sol [4]: good; IC50 ([1]; Table 3, read-out: IC50): ~1200 nM; Cmax brain ([5]; 10 mg/kg 5Q): ~0.3 µM; Cmax brain ([5]; 30 mg/kg): 1.3 μM @ 30 mL
18 | Cc1cc(C2(c3cccc(Cl)c3)N=C(N)N(C)C2=O)ccc1OC(F)F (stereo not drawn) [FAH-23] | 320 nM | 320 nM | 
19 | Cc1cc(C2(c3cnn(C)c3)N=C(N)N(C)C2=O)ccc1OC(F)F (stereo not drawn) [FAH-30] | 2000 nM |  | 
20 | Cc1cc(C2(C3CCCCC3)N=C(N)N(C)C2=O)ccc1OC(F)F (stereo not drawn) [FAH-59] | 1500 nM and 750 nM | 1500 nM | Toxicity in secondary cell assay [3, 8]: Toxic
21 | Cc1cc(C2(c3cccc(-c4ccccc4)c3)N=C(N)N(C)C2=O)ccc1OC(F)F (stereo not drawn) [FAH-73] | 870 nM |  | 
22 | COc1cc(C2(c3ccc(OC(F)F)c(C)c3)N=C(N)N(C)C2=O)ccn1 (stereo not drawn) [FAH-48] | 4800 nM | 4800 nM | 
